Results: ChEMBL document CHEMBL3046266, “Synthesis of curcumin and ethylcurcumin bioconjugates as potential antitumor agents” (Med Chem Res, 2012)
The source made the active and inactive calls. The calls are words filed in the database; no cut-off is given here.

What was measured:
[1] = system: SK-OV-3; assay: Cytotoxicity against Homo sapiens (human) SKOV3 cells by neutral red staining; type: functional, cell-based
[2] = biological target: T1, DNA topoisomerase 1 (Homo sapiens) (UniProt P11387); assay: Inhibition of Homo sapiens (human) topoisomerase 1 assessed as production of nicked DNA up to 25 uM by agarose gel electrophoresis
T1 sequence (whole entry): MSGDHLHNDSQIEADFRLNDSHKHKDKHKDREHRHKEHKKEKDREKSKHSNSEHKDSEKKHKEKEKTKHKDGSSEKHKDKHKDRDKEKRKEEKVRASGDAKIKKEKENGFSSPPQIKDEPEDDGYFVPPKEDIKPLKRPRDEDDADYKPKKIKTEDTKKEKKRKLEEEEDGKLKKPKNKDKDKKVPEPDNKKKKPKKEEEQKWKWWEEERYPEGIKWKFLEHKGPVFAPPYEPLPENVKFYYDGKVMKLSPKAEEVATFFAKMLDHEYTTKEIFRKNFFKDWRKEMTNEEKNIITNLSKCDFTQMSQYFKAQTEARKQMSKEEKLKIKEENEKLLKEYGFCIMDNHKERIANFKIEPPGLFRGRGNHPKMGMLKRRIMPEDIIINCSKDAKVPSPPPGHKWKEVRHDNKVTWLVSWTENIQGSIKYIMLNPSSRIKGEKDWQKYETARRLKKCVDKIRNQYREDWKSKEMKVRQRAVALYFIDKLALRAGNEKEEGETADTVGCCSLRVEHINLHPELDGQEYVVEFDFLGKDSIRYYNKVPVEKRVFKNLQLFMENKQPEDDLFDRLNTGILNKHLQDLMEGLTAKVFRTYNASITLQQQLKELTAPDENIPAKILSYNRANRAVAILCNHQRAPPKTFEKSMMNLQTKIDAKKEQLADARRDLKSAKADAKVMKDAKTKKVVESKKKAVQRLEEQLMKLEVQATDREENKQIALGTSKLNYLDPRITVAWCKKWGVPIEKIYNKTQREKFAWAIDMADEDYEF

[3] = system: BT-549; assay: Cytotoxicity against Homo sapiens (human) BT549 cells by neutral red staining; type: functional, cell-based
[4] = biological target: T2, DNA topoisomerase 2-alpha (Homo sapiens, UniProt P11388); assay: Inhibition of Homo sapiens (human) topoisomerase 2 assessed as decatenation of KDNA by agarose gel electrophoresis
T2 sequence (P11388 whole entry): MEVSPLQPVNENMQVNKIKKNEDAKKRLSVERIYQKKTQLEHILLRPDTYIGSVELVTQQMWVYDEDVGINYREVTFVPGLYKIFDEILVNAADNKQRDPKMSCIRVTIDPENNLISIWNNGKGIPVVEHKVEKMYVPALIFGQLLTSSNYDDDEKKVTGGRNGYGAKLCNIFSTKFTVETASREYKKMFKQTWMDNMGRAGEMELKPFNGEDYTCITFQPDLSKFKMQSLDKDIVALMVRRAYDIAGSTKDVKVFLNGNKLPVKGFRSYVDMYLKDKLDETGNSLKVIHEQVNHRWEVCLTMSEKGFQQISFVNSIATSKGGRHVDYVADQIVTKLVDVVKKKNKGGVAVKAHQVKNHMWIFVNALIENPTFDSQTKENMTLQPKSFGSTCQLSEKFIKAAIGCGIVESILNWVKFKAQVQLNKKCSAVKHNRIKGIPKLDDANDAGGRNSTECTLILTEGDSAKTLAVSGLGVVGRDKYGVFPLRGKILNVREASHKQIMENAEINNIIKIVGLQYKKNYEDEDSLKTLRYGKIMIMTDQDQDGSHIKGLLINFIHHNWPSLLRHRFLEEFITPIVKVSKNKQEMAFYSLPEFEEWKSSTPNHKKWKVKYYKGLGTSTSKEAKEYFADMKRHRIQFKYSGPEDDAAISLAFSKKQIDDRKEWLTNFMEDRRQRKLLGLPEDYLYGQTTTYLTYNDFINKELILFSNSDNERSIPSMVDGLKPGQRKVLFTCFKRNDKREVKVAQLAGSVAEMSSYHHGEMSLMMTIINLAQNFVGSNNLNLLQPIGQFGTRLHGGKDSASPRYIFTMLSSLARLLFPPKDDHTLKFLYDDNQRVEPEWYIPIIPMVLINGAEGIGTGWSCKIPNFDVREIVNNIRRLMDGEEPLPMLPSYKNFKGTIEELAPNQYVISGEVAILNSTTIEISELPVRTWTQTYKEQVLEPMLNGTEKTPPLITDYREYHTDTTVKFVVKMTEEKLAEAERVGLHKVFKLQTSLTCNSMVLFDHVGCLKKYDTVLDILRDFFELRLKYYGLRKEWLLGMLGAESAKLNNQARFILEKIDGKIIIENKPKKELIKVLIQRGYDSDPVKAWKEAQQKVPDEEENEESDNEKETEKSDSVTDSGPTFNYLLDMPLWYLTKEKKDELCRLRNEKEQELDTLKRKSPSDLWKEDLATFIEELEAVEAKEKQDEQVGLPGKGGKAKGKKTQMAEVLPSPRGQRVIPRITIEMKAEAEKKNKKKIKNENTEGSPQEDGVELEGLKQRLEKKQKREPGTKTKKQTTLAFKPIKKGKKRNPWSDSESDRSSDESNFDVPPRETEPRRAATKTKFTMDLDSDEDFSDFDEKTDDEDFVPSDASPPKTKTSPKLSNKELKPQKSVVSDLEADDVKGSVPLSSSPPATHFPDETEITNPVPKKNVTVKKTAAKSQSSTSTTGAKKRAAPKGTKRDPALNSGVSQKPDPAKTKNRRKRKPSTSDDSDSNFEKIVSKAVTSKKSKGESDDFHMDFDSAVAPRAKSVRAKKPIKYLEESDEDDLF

[5] = system: SK-MEL; assay: Cytotoxicity against Homo sapiens (human) SK-MEL cells by neutral red staining; type: functional, cell-based
[6] = system: Vero; assay: Cytotoxicity against Chlorocebus aethiops (African green monkey) Vero cells by neutral red staining; type: cell-based; details: chlorocebus sabaeus
[7] = biological target: T1, DNA topoisomerase 1 (Homo sapiens); assay: Inhibition of Homo sapiens (human) topoisomerase 1 assessed as relaxation of supercoiled DNA up to 25 uM by agarose gel electrophoresis
[8] = system: LLC-PK1; assay: Cytotoxicity against Sus scrofa (pig) LLC-PK1 cells by neutral red staining; type: cell-based
[9] = system: KB; assay: Cytotoxicity against Homo sapiens (human) KB cells by neutral red staining; type: functional, cell-based
[10] = system: LLC-PK1; assay: Cytotoxicity against Sus scrofa (pig) LLC-PK1 cells up to 25 uM by neutral red staining; type: cell-based
[11] = system: BT-549; assay: Cytotoxicity against Homo sapiens (human) BT549 cells up to 25 uM by neutral red staining; type: functional, cell-based
[12] = system: KB; assay: Cytotoxicity against Homo sapiens (human) KB cells up to 25 uM by neutral red staining; type: functional, cell-based
[13] = system: Vero; assay: Cytotoxicity against Chlorocebus aethiops (African green monkey) Vero cells up to 25 uM by neutral red staining; type: cell-based; details: chlorocebus sabaeus
[14] = biological target: T2, DNA topoisomerase 2-alpha; assay: Inhibition of Homo sapiens (human) topoisomerase 2 assessed as decatenation of KDNA up to 25 uM by agarose gel electrophoresis
[15] = system: SK-OV-3; assay: Cytotoxicity against Homo sapiens (human) SKOV3 cells up to 25 uM by neutral red staining; type: functional, cell-based
[16] = system: SK-MEL; assay: Cytotoxicity against Homo sapiens (human) SK-MEL cells up to 25 uM by neutral red staining; type: functional, cell-based

SMILES | inhibition [2] | IC50 [4] [µM] | inhibition [7] | inhibition [14] | IC50 [1] [µM] | IC50 [3] [µM] | IC50 [5] [µM] | IC50 [6] [µM] | IC50 [8] [µM] | IC50 [9] [µM] | Activity [10] | Activity [11] | Activity [12] | Activity [13] | Activity [15] | Activity [16]
COc1cc(/C=C/C(=O)CC(=O)/C=C/c2ccc(OC(=O)CCNCCCl)c(OC)c2)ccc1OC(=O)CCNCCCl | inactive | 2.9 | inactive | – | 23.8 | 11 | 15 | 12.5 | 16.8 | 11.5 | – | – | – | – | – | –
CCOc1cc(/C=C/C(=O)CC(=O)/C=C/c2ccc(OC(=O)CN(CCCl)CCCl)c(OCC)c2)ccc1OC(=O)CN(CCCl)CCCl | inactive | 3.4 | inactive | – | 13.5 | 11 | 14.5 | 15 | 13.8 | 21.5 | – | – | – | – | – | –
CCOc1cc(/C=C/C(=O)CC(=O)/C=C/c2ccc(OC(=O)CCNCCN(C)C)c(OCC)c2)ccc1OC(=O)CCNCCN(C)C | inactive | – | inactive | inactive | – | – | – | – | – | – | Non-toxic | inactive | inactive | Non-toxic | inactive | inactive
CCOc1cc(/C=C/C(=O)CC(=O)/C=C/c2ccc(OC(=O)CNCCCl)c(OCC)c2)ccc1OC(=O)CNCCCl | inactive | 4.1 | inactive | – | – | 9 | 13.3 | 11 | 6.8 | 12.5 | – | – | – | – | inactive | –
COc1cccc2c1C(=O)c1c(O)c3c(c(O)c1C2=O)C[C@@](O)(C(=O)CO)C[C@@H]3O[C@H]1C[C@H](N)[C@H](O)[C@H](C)O1 [DOXORUBICIN] | – | – | – | – | 0.8 | < 0.55 | 0.55 | > 5 | 0.75 | < 0.55 | – | – | – | – | – | –
COc1cc(/C=C/C(=O)CC(=O)/C=C/c2ccc(OC(=O)CN(CCCl)CCCl)c(OC)c2)ccc1OC(=O)CN(CCCl)CCCl | inactive | 5 | inactive | – | – | 6.75 | 7 | > 25 | 20 | 19.5 | – | – | – | – | inactive | –

More lines, main results first:

inhibition [2] | IC50 [4] [µM] | inhibition [7] | inhibition [14] | SMILES | IC50 [1] [µM] | IC50 [3] [µM] | IC50 [5] [µM] | IC50 [6] [µM] | IC50 [8] [µM] | IC50 [9] [µM] | Activity [10] | Activity [11] | Activity [12] | Activity [13] | Activity [15] | Activity [16]
inactive | 3 | inactive | – | CCN(CC)CCNCC(=O)Oc1ccc(/C=C/C(=O)CC(=O)/C=C/c2ccc(OC(=O)CNCCN(CC)CC)c(OC)c2)cc1OC | 15.5 | 16.3 | 8.5 | 19.5 | – | 24 | Non-toxic | – | – | – | – | –
inactive | 12 | inactive | – | CCOc1cc(/C=C/C(=O)CC(=O)/C=C/c2ccc(OC(=O)CNc3nc4ccc(OC)cc4s3)c(OCC)c2)ccc1OC(=O)CNc1nc2ccc(OC)cc2s1 | 2.8 | – | 4.75 | – | – | – | Non-toxic | inactive | inactive | Non-toxic | – | –
inactive | 2.7 | inactive | – | CCOc1cc(/C=C/C(=O)CC(=O)/C=C/c2ccc(OC(=O)CNc3nnc(C)s3)c(OCC)c2)ccc1OC(=O)CNc1nnc(C)s1 | 15.8 | 12 | 12.5 | 11.5 | 13 | 11.5 | – | – | – | – | – | –
inactive | 10 | inactive | – | CCOc1cc(/C=C/C(=O)CC(=O)/C=C/c2ccc(OC(=O)CNCCN(CC)CC)c(OCC)c2)ccc1OC(=O)CNCCN(CC)CC | 14.8 | 10 | 11.5 | 5 | 5.8 | 11.5 | – | – | – | – | – | –
inactive | 16 | inactive | – | COc1cc(/C=C/C(=O)CC(=O)/C=C/c2ccc(OC(=O)CNCCN(C)C)c(OC)c2)ccc1OC(=O)CNCCN(C)C | 22.5 | 20 | 15 | – | – | – | Non-toxic | – | inactive | Non-toxic | – | –
inactive | 15 | inactive | – | COc1cc(/C=C/C(=O)CC(=O)/C=C/c2ccc(OC(=O)CNc3nnc(C)s3)c(OC)c2)ccc1OC(=O)CNc1nnc(C)s1 | – | 8.75 | 7.5 | 23 | 22.5 | 22.5 | – | – | – | – | inactive | –
inactive | 3 | inactive | – | COc1cc(/C=C/C(=O)CC(=O)/C=C/c2ccc(OC(=O)CNc3ccc(S(N)(=O)=O)cc3)c(OC)c2)ccc1OC(=O)CNc1ccc(S(N)(=O)=O)cc1 | 22.5 | 10.5 | 18.8 | 11 | 15.8 | 14 | – | – | – | – | – | –
inactive | 3 | inactive | – | COc1cc(/C=C/C(=O)CC(=O)/C=C/c2ccc(OC(=O)CCNc3nnc(C)s3)c(OC)c2)ccc1OC(=O)CCNc1nnc(C)s1 | – | 4.25 | 7.5 | 15 | 15.5 | 16.3 | – | – | – | – | inactive | –
